Measured values published in publication PMC12431657, “Discovery and mechanistic insights of dibenzoylmethane as a broad spectrum inhibitor of coronavirus” (PLOS Pathogens, 2025).
Where “and” joins values, the source holds several entries; their conditions need not be identical. Equal values may be shown once.

Key:
Type in all cases: cell-based
[1] = tested on: SARS-CoV-2 variant Delta (B.1.617.2); experiment: microbe, parasite or virus in culture; conditions: for EC50: Severe acute respiratory syndrome coronavirus 2, 24 h, read-out: EC50 B.1.617.2 (293T-AT)
[2] = tested on: SARS-CoV-2 variant Omicron (BA.5); experiment: microbe, parasite or virus in culture; conditions: for EC50: Severe acute respiratory syndrome coronavirus 2, 24 h, read-out: EC50 BA.5 (293T-AT)
[3] = tested on: SARS-CoV-2 variant Omicron (BA.5)

Compound: C/C=C(/C)C(=O)OC(C)(C)[C@@H]1Cc2c(ccc3ccc(=O)oc23)O1 [Columbianadin, columbianadin]
- B.1.617.2, HEK293T-AT: inhibition at the concentration (Fig2B) [1]: 99.1 and 99.3
- EC50 [1]: < 80 nM
- EC50 [2]: < 80 nM

Compound: O=C(CC(=O)c1ccccc1)c1ccccc1 [DBM, dibenzoylmethane]
- EC50 [1]: 20800 nM
- BA.5, HEK293T-AT: inhibition at the concentration (Fig2B) [2]: 97.4
- inhibitory effect against SARS-CoV-2 BA.5 in HEK293T-AT cells [2]: demonstrated efficacy
- EC50 [2]: 6630 nM
- inhibitory effect against SARS-CoV-2 BA.5 in Vero E6 cells [3]: but not in Vero E6 cells

Compound: CCC(=O)O[C@H]1[C@H](O[C@@H]2[C@@H](C)[C@H](O[C@H]3C[C@@](C)(OC)[C@@H](O)[C@H](C)O3)[C@@H](C)C(=O)O[C@H](CC)[C@@](C)(O)[C@H](O)[C@@H](C)C(=O)[C@H](C)C[C@@]2(C)O)O[C@H](C)C[C@@H]1N(C)C [Erythromycin estolate, erythromycin estolate, reference compound]
- B.1.617.2, HEK293T-AT: inhibition at the concentration (Fig2B) [1]: 98.9 and 99.6 and 99.2
- EC50 [1]: < 80 nM
- EC50 [2]: < 80 nM

Compound: CC1=C[C@]23C(=O)[C@@H](C=C(COC(=O)c4ccccc4)[C@@H](O)[C@]2(O)[C@H]1OC(=O)c1ccccc1)[C@H]1[C@@H](C[C@H]3C)C1(C)C [Ingenol 3,20-dibenzoate, ingenol 3,20-dibenzoate]
- B.1.617.2, HEK293T-AT: inhibition at the concentration (Fig2B) [1]: 81.2
- EC50 [1]: < 80 nM
- EC50 [2]: < 80 nM

Compound: Cc1c([C@H](C)[C@@H]2NC[C@@H](C)C[C@H]2O)ccc2c1C[C@H]1[C@H]2CC=C2C[C@@H](O)CC[C@@]21C [Veratramine, veratramine]
- B.1.617.2, HEK293T-AT: inhibition at the concentration (Fig2B) [1]: 99.1 and 99.7 and 99.9
- EC50 [1]: < 80 nM
- BA.5, HEK293T-AT: inhibition at the concentration (Fig2B) [2]: 81.3
- EC50 [2]: < 80 nM
